Source: ChEMBL document CHEMBL1201862, “PubChem BioAssay data set” (2004)
The source made the active and inactive calls.

Experiments:
NADPH oxidase 1 = NADPH oxidase 1 (Homo sapiens, UniProt Q9Y5S8); type: functional, cell-based;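 also: Cell-based assay with luminescence read-out, IC50 derived from inhibitor dose-response curves; intracellular ROS from endogenous NOX1 in intact HT29 colon cancer cells; potency of inhibitors that lower the ROS luminescence signal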
[1] = target: T1, Sphingosine 1-phosphate receptor 2 (Homo sapiens, UniProt O95136); assay: Dose Response Cell Based Assay for Agonists of the S1P2 Receptor of Purchased Analogues. [Related pubchem assays: 729, 843, 854, 736 ]; type: functional
T1 sequence (O95136 whole entry): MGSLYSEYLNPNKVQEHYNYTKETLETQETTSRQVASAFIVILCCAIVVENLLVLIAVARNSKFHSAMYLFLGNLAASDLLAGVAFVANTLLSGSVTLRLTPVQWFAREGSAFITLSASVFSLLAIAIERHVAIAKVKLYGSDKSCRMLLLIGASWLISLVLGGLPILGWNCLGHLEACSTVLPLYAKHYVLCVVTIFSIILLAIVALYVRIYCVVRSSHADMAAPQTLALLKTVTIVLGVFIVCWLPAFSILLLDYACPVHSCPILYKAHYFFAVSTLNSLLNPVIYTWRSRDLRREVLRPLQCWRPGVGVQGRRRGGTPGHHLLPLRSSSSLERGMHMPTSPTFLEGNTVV

Ephrin type-A receptor 4 = Ephrin type-A receptor 4 (Mus musculus, UniProt Q03137); assay: inhibitors of EphA4 binding to KYL peptide, primary screen, biochemical, colorimetric, mouse EphA4 (AID 689); type: functional
Aminopeptidase N = target: T2, Aminopeptidase N (Plasmodium falciparum FcB1/Columbia, UniProt O96935); assay: P. falciparum M1AAP inhibitors, biochemical, fluorogenic H-Leu-NHMec substrate, 1536-well (AID 1445); design: species or system Plasmodium falciparum 3D7, 3D7
T2 sequence (O96935 whole entry): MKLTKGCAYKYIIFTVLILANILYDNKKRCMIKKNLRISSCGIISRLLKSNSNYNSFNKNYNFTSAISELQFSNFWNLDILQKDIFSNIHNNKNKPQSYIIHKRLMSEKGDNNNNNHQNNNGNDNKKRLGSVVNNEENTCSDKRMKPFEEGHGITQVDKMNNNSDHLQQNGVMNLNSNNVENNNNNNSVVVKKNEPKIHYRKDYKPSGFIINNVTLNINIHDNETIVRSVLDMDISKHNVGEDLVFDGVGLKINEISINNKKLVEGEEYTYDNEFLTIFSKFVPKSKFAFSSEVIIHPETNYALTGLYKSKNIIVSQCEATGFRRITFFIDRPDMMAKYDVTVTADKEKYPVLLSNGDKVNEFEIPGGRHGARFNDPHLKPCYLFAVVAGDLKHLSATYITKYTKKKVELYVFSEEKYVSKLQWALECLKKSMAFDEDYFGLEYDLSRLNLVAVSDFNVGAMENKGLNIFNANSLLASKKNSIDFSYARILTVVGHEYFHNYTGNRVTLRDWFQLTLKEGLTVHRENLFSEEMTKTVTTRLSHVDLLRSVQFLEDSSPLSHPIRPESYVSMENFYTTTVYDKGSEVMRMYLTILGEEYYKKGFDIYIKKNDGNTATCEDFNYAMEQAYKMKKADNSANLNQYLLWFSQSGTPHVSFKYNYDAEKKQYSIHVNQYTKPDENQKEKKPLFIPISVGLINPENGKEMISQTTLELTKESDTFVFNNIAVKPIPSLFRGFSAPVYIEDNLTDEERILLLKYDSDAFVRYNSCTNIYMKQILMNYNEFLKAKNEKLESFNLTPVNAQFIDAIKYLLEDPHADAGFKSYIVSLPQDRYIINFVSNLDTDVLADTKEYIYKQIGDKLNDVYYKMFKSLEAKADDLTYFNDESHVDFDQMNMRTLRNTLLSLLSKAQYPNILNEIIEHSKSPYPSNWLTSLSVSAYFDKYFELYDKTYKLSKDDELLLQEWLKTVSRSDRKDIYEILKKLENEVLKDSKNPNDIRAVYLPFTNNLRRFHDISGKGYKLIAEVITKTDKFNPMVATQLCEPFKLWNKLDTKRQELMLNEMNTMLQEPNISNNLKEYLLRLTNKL

Aspartyl aminopeptidase = target: T3, Aspartyl aminopeptidase (Plasmodium falciparum 3D7, UniProt Q8I2J3); assay: Counterscreen for inhibitors of M1 and M17 aminopeptidases: QFRET-based biochemical high throughput dose response assay for inhibitors of the Plasmodium falciparum M18 Aspartyl Aminopeptidase (PFM18AAP). [Related PubChem assays: 1619 (Screening assay (M17LAP inhibitors).), 1445 (Screening assay (M1AAP inhibitors).)]
T3 sequence (Q8I2J3 whole entry): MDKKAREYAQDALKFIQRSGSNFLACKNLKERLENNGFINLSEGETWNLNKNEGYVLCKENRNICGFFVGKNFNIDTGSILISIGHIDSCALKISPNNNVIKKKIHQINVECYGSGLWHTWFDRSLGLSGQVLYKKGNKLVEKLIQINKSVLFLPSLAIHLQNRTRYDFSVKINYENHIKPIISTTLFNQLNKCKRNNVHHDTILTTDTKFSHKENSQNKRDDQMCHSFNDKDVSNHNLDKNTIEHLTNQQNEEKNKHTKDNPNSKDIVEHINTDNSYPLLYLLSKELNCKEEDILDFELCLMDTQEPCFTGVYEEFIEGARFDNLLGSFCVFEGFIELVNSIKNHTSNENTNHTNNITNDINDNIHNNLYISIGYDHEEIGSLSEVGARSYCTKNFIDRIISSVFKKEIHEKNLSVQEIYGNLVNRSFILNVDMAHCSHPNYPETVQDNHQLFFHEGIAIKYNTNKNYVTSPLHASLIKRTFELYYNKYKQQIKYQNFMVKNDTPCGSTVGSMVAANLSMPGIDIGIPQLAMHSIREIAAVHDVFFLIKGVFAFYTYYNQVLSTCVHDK

Procathepsin L = Procathepsin L (Homo sapiens, UniProt P07711); assay: cathepsin L inhibitors, dose response, counter-screen for M1/M17 aminopeptidase inhibitor project, biochemical, QFRET, 1536-well (AID 2214)
Procathepsin L, sequence (P07711 whole entry): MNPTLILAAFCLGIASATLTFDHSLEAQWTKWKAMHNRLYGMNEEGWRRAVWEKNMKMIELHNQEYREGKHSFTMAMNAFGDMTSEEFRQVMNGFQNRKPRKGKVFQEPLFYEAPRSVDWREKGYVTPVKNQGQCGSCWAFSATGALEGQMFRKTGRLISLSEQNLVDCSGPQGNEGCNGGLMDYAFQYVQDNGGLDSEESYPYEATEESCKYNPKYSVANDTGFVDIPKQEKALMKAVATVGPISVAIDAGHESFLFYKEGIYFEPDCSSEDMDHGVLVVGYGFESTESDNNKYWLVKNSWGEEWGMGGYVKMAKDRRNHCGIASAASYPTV

Streptokinase A = target: T4, Streptokinase A (Streptococcus pyogenes serotype M1, UniProt P10520); assay: S. pyogenes streptokinase expression inhibitors, potency, dose response, plasminogen activation absorbance, OD405 (AID 1914); type: functional, Streptococcus pyogenes M1 GAS;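 also: secreted streptokinase activity via plasminogen activation per viability signal from cell pellet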
T4 sequence (P10520 whole entry): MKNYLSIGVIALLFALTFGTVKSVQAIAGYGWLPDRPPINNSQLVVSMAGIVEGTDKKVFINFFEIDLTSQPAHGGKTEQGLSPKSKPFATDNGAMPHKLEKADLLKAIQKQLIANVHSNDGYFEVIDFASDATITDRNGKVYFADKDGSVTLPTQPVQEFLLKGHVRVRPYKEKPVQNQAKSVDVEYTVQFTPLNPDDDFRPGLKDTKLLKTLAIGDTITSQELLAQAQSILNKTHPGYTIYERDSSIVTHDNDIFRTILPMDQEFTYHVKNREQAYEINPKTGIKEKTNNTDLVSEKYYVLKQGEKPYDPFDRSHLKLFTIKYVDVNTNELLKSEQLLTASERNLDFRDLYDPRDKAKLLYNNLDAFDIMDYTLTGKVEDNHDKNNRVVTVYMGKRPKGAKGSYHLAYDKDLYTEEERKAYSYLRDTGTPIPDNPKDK

[2] = target: T1, Sphingosine 1-phosphate receptor 2; assay: Dose Response Cell Based Assay for Antagonists of the S1P2 Receptor. [Related pubchem assays: 856, 736 ]; type: functional
[3] = test system: Streptococcus sp. 'group A'; assay: growth inhibition of control SK(-) GAS strain, dose response, counter-screen for streptokinase expression inhibitor project, luminescence, kanamycin, BacTiterGlo, confirmation (AID 1900); type: functional, organism-based
Streptococcus = assay: Group A Streptococcus viability loss, dose response, counter-screen for streptokinase expression inhibitor project, luminescence, BacTiterGlo (AID 1915); type: functional, organism-based;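 also: potency for reduction of bacterial viability or growth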
Cytochrome P450 3A4 = Cytochrome P450 3A4 (Homo sapiens, UniProt P08684);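 also: CYP3A4 tested as one member of a cytochrome P450 panel screen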
Cytochrome P450 3A4, sequence (P08684 whole entry): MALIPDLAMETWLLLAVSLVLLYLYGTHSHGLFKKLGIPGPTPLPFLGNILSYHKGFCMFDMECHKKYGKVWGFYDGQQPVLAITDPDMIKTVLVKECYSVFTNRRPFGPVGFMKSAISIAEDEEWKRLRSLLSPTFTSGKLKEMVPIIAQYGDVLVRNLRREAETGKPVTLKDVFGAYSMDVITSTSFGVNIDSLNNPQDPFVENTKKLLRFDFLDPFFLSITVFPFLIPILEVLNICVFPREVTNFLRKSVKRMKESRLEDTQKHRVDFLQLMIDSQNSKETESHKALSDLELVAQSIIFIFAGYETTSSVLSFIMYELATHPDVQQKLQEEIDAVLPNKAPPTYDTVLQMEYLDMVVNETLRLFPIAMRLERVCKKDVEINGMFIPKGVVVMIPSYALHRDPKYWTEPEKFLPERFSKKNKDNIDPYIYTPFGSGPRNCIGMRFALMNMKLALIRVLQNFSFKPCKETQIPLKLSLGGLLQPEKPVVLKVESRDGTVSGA

[4] = target: Peroxisome proliferator-activated receptor gamma/Nuclear receptor corepressor 2 (Homo sapiens, UniProt P37231+Q9Y618); assay: Counterscreen for NR2E3 inverse agonists: TR-FRET-based biochemical high throughput dose response assay to identify inverse agonists of the interaction between peroxisome proliferator-activated receptor gamma (PPARg) and nuclear receptor co-repressor 2 (NCOR2).; type: functional
Peroxisome proliferator-activated receptor gamma/Nuclear receptor corepressor 2, sequence (P37231 whole entry): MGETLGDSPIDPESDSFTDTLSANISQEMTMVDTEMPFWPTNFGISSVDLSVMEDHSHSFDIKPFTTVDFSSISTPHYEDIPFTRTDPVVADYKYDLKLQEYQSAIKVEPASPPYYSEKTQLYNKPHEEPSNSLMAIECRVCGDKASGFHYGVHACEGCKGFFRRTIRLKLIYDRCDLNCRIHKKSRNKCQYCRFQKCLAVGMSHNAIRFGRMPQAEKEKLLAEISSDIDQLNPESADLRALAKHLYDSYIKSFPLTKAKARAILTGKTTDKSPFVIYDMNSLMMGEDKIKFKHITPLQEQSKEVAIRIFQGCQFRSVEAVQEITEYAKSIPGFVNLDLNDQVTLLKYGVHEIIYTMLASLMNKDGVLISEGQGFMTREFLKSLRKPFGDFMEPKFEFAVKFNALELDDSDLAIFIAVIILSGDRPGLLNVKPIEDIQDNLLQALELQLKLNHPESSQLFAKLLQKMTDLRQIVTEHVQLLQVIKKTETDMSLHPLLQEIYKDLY
Peroxisome proliferator-activated receptor gamma/Nuclear receptor corepressor 2, sequence (Q9Y618 whole entry): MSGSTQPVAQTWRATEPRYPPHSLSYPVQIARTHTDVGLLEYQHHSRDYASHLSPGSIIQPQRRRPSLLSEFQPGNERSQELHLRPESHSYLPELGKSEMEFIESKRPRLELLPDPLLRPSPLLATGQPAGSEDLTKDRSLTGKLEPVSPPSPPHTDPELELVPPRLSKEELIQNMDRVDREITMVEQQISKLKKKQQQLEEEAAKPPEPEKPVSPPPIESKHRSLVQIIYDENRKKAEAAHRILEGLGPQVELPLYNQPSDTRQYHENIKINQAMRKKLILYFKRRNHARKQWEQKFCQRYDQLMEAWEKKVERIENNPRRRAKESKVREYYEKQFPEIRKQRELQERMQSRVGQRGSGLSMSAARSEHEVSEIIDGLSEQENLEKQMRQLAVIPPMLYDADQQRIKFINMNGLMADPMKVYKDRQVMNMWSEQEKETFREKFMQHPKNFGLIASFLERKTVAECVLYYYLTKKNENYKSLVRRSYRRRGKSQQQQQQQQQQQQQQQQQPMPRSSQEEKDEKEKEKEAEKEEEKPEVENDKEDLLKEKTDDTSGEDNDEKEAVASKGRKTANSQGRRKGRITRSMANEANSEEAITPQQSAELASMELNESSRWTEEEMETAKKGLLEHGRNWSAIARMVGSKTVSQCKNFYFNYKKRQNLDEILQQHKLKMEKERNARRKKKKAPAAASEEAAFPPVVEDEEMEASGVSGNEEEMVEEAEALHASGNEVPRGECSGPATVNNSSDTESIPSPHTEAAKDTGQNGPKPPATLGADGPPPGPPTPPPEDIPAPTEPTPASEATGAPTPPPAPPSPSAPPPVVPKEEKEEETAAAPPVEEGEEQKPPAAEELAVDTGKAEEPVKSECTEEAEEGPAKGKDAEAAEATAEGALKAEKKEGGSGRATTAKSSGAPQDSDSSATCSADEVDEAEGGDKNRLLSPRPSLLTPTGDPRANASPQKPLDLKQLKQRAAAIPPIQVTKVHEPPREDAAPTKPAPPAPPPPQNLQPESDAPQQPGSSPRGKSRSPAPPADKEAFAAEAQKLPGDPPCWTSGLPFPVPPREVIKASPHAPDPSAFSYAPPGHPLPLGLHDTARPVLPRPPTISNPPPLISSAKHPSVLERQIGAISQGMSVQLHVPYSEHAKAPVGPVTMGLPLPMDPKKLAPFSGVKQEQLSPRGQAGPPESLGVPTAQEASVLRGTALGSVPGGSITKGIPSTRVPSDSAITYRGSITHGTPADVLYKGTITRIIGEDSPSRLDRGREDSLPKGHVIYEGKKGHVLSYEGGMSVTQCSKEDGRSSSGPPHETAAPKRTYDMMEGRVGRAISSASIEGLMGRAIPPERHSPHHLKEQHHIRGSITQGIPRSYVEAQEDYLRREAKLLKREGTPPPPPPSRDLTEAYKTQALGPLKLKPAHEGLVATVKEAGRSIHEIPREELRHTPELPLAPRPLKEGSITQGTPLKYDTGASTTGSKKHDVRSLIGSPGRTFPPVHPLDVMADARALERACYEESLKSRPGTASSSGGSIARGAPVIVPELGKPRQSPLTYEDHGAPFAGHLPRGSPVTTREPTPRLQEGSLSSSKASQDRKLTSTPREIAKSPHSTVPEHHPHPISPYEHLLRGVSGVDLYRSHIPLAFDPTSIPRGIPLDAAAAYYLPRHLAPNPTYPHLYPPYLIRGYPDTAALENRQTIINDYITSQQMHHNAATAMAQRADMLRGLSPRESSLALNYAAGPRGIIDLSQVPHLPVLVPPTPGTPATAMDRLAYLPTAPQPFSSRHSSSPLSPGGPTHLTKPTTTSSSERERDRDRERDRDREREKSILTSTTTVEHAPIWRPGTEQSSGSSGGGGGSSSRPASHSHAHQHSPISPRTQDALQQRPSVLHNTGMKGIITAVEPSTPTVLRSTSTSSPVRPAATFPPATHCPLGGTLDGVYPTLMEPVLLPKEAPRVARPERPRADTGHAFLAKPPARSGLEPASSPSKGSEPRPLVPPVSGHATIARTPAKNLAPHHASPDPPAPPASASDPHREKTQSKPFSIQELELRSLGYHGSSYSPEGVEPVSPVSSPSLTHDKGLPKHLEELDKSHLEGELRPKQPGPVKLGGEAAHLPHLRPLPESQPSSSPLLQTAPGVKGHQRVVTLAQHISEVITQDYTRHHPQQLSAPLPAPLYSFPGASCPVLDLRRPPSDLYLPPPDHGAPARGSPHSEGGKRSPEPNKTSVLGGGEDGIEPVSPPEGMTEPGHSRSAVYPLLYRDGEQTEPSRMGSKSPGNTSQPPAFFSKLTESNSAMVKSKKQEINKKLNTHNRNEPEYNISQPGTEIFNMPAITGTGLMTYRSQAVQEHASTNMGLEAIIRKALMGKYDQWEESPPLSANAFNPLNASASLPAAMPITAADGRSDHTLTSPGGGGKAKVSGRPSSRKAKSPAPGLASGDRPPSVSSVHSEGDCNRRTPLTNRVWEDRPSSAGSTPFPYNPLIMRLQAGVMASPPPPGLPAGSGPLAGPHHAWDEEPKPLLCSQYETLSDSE

[5] = target: Peroxisome proliferator-activated receptor gamma/Nuclear receptor coactivator 1 (Homo sapiens, UniProt P37231); assay: (§1) TR-FRET dose response biochemical High Throughput Screening assay for agonists of the steroid receptor coactivator 1 (SRC-1) recruitment by the peroxisome proliferator-activated receptor gamma (PPAR gamma): non-selective agonists. [Related pubchem assays (depositor defined):AID1300, AID1808, AID504735, AID631]; type: protein assay
[6] = target: Peroxisome proliferator-activated receptor gamma/Nuclear receptor coactivator 3 (Homo sapiens, UniProt P37231); assay: as §1, with “3 (SRC-3)” for “1 (SRC-1)”, “assays: 1301 (Confirmation screen.), 1048 (Primary screen.)]” for “assays (depositor defined):AID1300, AID1808, AID504735, AID631]”; type: functional
[7] = target: Photoreceptor-specific nuclear receptor (Homo sapiens, UniProt Q9Y5X4); assay: NR2E3 inverse agonists, dose response, biochemical, TR-FRET (AID 463256); type: functional
[8] = target: Peroxisome proliferator-activated receptor gamma/Nuclear receptor coactivator 2 (Homo sapiens, UniProt P37231); assay: TR-FRET dose response biochemical High Throughput Screening assay for agonists of the steroid receptor coactivator 2 (SRC-2) recruitment by the peroxisome proliferator-activated receptor gamma (PPAR gamma): non-selective agonists. [Related pubchem assays: 1297, 1032 ]; type: functional
[9] = target: Protein-tyrosine kinase 2-beta (Homo sapiens, UniProt Q14289);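 also: potency of inhibitors of PYK2 kinase phosphorylation of poly-GT substrate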

NADPH oxidase 1, sequence (Q9Y5S8 whole entry): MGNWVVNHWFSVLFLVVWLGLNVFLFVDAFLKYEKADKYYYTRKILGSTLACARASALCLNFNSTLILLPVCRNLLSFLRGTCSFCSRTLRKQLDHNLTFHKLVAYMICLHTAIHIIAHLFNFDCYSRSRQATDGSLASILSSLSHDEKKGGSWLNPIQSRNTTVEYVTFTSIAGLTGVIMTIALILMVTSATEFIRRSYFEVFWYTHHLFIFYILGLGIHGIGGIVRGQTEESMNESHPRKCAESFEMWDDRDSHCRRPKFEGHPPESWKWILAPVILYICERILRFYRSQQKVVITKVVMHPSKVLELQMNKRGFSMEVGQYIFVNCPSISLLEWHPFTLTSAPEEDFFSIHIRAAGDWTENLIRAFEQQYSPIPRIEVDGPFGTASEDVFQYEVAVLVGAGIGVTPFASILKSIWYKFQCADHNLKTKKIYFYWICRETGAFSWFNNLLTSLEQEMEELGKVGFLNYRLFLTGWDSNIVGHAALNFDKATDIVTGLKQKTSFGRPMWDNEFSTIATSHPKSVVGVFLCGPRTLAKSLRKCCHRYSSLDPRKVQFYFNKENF

SMILES: Clc1ccc2c(c1)Nc1ccccc1S2
- IC50 (NADPH oxidase 1): 0.254 µM (active)

SMILES: Cc1cc(C(=O)O)c(C)n1Cc1ccccc1
- EC50 [1]: > 30 µM (not active)

SMILES: Cc1occc1-c1nnc(SCC(=O)Nc2ccccc2-c2ccccc2)n1C
- IC50 (Ephrin type-A receptor 4): > 100 µM (not active)

SMILES: O=C(NCc1cccc(F)c1)C1CCN(S(=O)(=O)Cc2ccccc2)CC1
- IC50 (Aminopeptidase N): 1.71 µM (active)
- IC50 (Aspartyl aminopeptidase): > 73.5 µM (not active)
- IC50 (Procathepsin L): > 59.6 µM (not active)

SMILES: Cc1nn(-c2ccccc2)c2c1C(c1ccc(O)c(O)c1)N1C(=N2)C(Nc2ccccc2)=Nc2ccccc21 (configuration not stated)
- EC50 (Streptokinase A): 1.53 µM (active)
- IC50 [2]: 4.68 µM (active)
- EC50 [3]: 0.772 µM (active)
- EC50 (Streptococcus): 5.88 µM (active)
- AC50 (Cytochrome P450 3A4): 14.1 µM (inconclusive)

SMILES: COc1ccc(C(=O)Nc2nc3ccc4nc(C)sc4c3s2)cc1
- IC50 [4]: 2.19 µM (active)
- EC50 [5]: 45.2 µM (inactive)
- EC50 [6]: 58.7 µM (not active)
- IC50 [7]: 0.862 µM (active)
- EC50 [8]: 37.9 µM (not active)
- IC50 [9]: 1.45 µM (active)
